Experimental findings from ChEMBL document CHEMBL5653631, “A Potent and Selective ULK1 Inhibitor Suppresses Autophagy and Sensitizes Cancer Cells to Nutrient Stress” (iScience, 2018) are described below.

Test [1] addresses Maternal embryonic leucine zipper kinase (Homo sapiens) (UniProt Q14680). In words: Inhibition of human recombinant MELK at 40 nM in presence of ATP by radiometric assay relative to control.
For test [2], the target named is T1, NUAK family SNF1-like kinase 2 (Homo sapiens) (UniProt Q9H093).
T1 sequence (whole entry): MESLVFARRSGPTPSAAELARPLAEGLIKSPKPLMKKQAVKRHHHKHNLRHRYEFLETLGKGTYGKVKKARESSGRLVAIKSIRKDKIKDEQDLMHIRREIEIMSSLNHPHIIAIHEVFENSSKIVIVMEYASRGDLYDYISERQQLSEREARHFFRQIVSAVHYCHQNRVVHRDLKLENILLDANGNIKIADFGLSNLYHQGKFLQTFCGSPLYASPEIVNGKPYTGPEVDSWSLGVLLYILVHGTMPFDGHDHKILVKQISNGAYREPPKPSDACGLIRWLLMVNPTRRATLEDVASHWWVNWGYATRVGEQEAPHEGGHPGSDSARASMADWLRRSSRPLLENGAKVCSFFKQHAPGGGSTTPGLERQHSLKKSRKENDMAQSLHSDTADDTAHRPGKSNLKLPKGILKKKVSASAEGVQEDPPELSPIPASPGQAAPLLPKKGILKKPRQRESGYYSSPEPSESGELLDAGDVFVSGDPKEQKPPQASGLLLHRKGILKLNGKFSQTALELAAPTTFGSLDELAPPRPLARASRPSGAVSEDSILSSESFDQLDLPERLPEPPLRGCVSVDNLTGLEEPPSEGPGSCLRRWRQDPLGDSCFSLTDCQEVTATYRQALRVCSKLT
In words: Inhibition of human recombinant NuaK2 at 500 nM in presence of ATP by radiometric assay relative to control.

In test [3] the target is T2, Serine/threonine-protein kinase Sgk3 (Homo sapiens) (UniProt Q96BR1).
T2 sequence (whole entry): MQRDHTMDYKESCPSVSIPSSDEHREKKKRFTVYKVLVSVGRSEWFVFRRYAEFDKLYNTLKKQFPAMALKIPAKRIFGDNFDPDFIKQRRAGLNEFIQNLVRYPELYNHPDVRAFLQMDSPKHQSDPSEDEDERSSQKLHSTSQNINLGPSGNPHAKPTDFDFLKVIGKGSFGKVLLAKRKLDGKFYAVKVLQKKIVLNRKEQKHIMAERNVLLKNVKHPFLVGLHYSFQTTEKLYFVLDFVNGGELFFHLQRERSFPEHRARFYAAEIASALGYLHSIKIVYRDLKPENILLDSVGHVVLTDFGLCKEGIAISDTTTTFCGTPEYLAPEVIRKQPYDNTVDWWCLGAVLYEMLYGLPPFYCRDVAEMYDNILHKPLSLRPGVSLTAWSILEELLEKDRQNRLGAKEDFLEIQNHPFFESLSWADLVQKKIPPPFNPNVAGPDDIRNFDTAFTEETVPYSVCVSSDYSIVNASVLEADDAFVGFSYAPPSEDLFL
Put plainly: Inhibition of human recombinant SGK3 at 15 nM in presence of ATP by radiometric assay relative to control.

Test [4] concerns the target Death-associated protein kinase 1 (Homo sapiens) (UniProt P53355). Put plainly: Inhibition of human recombinant DAPK1 at 15 nM in presence of ATP by radiometric assay relative to control.
The target in test [5] is T3, Myosin-IIIb (Homo sapiens) (UniProt Q8WXR4).
T3 sequence (whole entry): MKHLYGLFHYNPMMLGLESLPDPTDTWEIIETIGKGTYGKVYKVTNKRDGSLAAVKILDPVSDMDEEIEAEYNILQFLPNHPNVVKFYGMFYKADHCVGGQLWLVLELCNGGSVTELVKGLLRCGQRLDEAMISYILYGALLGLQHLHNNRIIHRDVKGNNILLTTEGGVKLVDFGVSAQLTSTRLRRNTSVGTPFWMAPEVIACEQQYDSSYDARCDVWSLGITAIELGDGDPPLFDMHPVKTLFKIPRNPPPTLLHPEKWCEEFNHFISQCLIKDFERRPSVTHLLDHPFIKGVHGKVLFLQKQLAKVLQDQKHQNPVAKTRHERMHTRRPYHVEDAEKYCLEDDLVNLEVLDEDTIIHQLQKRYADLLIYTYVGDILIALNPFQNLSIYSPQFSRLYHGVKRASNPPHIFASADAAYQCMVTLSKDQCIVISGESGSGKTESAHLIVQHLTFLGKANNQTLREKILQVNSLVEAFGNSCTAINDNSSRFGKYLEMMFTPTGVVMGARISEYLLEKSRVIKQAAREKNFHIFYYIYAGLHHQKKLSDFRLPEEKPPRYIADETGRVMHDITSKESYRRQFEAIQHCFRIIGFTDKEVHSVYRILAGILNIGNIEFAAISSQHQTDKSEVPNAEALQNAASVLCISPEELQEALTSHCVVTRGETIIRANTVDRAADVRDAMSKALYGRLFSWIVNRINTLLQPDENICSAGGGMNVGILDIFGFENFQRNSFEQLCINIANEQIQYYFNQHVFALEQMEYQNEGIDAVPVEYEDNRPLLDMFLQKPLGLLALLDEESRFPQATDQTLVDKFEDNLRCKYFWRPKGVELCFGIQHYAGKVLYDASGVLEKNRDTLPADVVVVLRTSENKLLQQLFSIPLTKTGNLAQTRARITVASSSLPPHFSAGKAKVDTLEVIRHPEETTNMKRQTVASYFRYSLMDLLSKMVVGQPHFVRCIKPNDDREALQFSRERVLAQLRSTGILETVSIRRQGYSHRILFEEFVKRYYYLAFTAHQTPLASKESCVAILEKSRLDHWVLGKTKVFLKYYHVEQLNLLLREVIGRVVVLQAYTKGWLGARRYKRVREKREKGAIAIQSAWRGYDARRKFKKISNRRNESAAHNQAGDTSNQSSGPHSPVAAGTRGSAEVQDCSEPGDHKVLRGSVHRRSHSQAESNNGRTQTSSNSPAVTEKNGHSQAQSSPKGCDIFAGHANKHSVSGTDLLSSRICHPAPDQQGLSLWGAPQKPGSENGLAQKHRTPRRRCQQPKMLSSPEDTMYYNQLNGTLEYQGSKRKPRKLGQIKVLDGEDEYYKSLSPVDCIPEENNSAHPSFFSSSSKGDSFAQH
In words: Inhibition of human recombinant MYO3B at 15 nM related to control ULK1.

Test [6] deals with Tyrosine-protein kinase JAK2 (Homo sapiens) (UniProt O60674). Put plainly: Inhibition of human recombinant JAK2 at 15 nM in presence of ATP by radiometric assay relative to control.
A further test is filed under the species Homo sapiens. Put plainly: Inhibition of human recombinant ABL at 15 nM related to control ULK1.

Death-associated protein kinase 1 (Homo sapiens), sequence (P53355 whole entry, looked up): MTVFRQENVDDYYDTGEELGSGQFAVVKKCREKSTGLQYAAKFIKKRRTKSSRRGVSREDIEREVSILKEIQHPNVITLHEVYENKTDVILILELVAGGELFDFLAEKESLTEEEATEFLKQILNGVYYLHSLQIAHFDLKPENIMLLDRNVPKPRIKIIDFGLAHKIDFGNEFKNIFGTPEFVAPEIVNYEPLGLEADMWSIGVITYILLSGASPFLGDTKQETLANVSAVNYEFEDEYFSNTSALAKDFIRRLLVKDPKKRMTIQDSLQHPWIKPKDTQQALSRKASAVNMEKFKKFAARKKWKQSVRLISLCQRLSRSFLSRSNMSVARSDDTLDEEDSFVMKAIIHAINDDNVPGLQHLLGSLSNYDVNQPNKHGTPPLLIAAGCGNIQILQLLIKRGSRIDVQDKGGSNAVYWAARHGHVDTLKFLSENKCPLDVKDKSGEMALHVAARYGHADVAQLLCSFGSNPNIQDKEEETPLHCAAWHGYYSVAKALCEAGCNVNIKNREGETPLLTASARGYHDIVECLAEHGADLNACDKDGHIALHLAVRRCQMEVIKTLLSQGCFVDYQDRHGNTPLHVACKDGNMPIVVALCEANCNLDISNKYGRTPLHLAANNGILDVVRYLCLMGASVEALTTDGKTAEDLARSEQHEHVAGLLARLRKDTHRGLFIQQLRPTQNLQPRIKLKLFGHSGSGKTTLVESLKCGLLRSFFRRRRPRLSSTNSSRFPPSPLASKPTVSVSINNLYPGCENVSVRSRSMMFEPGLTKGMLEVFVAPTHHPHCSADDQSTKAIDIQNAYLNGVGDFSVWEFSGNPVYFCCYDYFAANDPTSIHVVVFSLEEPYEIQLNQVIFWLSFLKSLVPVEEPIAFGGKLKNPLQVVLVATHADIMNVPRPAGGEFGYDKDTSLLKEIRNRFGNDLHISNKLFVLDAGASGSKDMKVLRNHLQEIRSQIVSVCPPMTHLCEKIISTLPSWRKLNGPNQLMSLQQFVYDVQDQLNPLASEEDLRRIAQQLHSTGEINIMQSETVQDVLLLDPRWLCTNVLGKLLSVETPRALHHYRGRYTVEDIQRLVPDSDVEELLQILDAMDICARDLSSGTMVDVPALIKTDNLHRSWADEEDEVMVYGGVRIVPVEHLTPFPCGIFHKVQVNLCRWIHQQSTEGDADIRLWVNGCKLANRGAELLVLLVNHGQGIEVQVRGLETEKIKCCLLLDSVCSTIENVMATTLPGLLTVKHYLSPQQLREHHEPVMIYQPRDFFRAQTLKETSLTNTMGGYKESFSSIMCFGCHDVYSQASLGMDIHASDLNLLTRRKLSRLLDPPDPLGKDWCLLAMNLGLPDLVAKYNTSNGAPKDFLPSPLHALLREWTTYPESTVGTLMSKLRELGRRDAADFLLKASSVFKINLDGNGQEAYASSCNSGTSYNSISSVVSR
Tyrosine-protein kinase JAK2 (Homo sapiens), sequence (O60674 whole entry): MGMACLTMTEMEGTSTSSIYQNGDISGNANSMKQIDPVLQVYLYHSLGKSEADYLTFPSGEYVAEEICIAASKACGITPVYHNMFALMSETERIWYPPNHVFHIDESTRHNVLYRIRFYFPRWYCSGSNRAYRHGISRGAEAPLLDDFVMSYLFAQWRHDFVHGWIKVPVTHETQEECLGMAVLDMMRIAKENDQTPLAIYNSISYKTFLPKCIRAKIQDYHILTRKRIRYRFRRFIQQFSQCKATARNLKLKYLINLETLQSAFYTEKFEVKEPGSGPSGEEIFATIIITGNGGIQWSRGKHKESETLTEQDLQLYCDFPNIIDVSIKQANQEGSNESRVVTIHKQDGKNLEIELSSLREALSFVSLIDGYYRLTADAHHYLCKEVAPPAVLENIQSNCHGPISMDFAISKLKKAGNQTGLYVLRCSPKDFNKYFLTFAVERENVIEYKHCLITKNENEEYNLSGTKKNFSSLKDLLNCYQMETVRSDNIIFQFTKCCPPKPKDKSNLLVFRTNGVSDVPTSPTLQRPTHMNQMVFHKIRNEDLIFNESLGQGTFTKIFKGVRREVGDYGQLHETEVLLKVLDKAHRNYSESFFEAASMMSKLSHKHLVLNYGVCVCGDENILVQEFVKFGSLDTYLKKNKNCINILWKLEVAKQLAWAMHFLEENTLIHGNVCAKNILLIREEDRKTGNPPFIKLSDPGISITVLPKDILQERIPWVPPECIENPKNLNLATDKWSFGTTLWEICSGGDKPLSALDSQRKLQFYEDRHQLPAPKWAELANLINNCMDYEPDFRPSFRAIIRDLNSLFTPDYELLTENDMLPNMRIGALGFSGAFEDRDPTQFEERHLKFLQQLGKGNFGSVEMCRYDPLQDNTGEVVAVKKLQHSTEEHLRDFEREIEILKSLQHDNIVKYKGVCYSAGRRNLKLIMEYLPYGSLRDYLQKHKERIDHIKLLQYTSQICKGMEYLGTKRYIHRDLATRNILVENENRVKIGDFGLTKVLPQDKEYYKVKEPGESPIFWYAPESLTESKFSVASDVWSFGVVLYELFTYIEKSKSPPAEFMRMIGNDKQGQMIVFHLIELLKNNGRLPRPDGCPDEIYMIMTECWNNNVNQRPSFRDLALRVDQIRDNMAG
Maternal embryonic leucine zipper kinase (Homo sapiens), sequence (Q14680 whole entry, looked up): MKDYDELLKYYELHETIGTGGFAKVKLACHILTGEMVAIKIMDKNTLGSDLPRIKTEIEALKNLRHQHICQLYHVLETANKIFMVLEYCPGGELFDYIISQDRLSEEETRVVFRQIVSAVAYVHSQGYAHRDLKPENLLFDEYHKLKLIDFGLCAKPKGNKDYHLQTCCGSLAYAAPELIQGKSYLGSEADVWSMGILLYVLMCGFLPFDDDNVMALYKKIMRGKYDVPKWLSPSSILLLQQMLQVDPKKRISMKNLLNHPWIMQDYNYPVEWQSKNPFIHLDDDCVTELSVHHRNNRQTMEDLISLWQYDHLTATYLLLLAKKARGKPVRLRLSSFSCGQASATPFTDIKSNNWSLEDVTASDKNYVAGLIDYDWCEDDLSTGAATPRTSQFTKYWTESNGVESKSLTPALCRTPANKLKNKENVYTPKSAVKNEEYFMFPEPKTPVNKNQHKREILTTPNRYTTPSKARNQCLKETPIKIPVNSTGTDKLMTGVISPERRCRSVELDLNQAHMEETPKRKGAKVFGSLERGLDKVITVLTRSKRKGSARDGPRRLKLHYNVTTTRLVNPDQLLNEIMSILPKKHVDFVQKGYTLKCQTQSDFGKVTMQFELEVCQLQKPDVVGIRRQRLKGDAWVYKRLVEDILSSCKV

For orientation: inhibition means the percentage by which the read-out fell short of the control. For the compound `O=C(N[C@@H](C1CC1)C(F)(F)F)c1cc(-c2cnn3cc(-c4ccc(F)cc4)cnc23)cs1`, the inhibition in test [1] is 20%.
For `CNC(=O)c1ccccc1Oc1nc(Nc2cc(OC)c(OC)c(OC)c2)ncc1Br`, the inhibition in test [2] worked out at 64%.
For `CC(C)[C@H](NC(=O)c1cc(-c2cnn3cc(-c4ccc(OCCN5CCCCC5)cc4)cnc23)cs1)C(F)(F)F`, the values for the inhibition in test [3], in test [4] and in test [6] were 4%, 4% and 6%, respectively. Besides, the values for the fold change (FC) (in test [5]; in the test filed under Homo sapiens) were 0.07 and 0.93, respectively.
